Some results are limits rather than exact numbers.

This is an account of results in patent US9725465B2, “Biaryl acetamide compounds and methods of use thereof” (Ambit Biosciences Corporation, priority 2013, dated 2017).

For one experiment, the target named is KIT kinase (Homo sapiens (Human), UniProt P10721). In words: Competition binding assay (Kd), KIT. The settings on record: competition binding assay. The essentials: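 Kd derived from eleven-point threefold serial dilutions of compound competing with bead-bound ligand for kinase; bound kinase eluted and measured by quantitative PCR. Kinase supplied either as a T7 phage fusion or expressed in HEK-293 cells with a DNA tag; DMSO served as control.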
KIT kinase, sequence (P10721 26-976): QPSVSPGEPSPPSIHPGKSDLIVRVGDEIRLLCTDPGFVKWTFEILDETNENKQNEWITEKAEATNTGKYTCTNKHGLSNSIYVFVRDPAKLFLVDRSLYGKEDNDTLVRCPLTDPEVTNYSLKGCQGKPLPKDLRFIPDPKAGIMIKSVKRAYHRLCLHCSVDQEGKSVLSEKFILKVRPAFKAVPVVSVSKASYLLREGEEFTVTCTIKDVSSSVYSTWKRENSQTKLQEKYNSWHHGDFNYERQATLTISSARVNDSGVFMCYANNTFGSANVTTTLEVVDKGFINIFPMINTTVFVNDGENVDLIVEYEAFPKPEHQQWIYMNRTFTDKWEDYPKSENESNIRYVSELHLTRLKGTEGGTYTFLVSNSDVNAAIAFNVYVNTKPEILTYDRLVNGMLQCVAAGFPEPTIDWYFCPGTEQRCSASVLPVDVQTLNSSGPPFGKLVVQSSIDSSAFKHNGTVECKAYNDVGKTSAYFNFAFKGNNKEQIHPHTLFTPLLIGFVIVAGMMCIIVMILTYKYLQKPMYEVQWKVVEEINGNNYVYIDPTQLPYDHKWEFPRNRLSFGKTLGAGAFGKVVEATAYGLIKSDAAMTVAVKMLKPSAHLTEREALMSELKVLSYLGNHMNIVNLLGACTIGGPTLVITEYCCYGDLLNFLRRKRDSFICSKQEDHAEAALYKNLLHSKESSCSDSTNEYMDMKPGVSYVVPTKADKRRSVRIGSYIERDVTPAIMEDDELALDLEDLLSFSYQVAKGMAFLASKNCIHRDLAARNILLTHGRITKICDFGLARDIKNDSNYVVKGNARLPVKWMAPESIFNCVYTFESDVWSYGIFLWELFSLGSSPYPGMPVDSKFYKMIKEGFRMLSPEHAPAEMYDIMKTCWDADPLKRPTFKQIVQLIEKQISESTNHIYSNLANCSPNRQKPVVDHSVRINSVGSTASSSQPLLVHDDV

A further experiment concerns the target FLT3-ITD (Homo sapiens (Human), UniProt P36888, INS600HVDFREYEYD). In words: pFLT3 MSD assay, Ba/F3 FLT3-ITD. In kind it is cell-based. The conditions noted are these: Ba/F3 FLT3-ITD cells, 2 hours, read-out: BaF3-FLT3-ITD pFlt3 IC50.
For a further experiment, the target named is FLT3 kinase (Homo sapiens (Human), UniProt P36888). Briefly: Competition binding assay (Kd), FLT3. The settings on record: competition binding assay.
FLT3 kinase, sequence (P36888 27-993): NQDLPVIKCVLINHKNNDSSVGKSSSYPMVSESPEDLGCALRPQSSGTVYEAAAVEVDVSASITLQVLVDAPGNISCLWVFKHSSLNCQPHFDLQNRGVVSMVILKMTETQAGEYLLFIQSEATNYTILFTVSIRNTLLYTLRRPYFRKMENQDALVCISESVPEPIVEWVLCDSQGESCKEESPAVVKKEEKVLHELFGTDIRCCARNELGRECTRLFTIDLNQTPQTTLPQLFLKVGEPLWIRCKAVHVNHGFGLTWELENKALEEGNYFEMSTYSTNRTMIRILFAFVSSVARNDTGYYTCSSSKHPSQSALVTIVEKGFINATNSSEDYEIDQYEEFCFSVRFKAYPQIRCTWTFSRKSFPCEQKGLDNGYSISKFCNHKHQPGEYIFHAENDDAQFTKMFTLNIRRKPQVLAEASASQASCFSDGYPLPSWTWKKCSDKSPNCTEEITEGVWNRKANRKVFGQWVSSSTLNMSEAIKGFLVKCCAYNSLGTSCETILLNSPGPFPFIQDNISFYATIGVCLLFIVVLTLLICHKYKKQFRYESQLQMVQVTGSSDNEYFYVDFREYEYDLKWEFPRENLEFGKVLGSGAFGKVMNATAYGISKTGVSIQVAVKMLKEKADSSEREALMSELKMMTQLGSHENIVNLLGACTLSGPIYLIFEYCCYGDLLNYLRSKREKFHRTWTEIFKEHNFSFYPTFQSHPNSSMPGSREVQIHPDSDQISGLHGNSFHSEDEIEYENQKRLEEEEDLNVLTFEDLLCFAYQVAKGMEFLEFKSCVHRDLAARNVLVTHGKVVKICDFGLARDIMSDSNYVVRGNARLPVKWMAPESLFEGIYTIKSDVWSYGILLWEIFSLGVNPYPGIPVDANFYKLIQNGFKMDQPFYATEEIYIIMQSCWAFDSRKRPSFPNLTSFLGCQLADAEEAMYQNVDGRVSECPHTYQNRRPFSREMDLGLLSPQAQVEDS

FLT3-ITD, sequence (P36888 other isoform, or with tags, fused parts or gaps limits assumed, stated change not applied): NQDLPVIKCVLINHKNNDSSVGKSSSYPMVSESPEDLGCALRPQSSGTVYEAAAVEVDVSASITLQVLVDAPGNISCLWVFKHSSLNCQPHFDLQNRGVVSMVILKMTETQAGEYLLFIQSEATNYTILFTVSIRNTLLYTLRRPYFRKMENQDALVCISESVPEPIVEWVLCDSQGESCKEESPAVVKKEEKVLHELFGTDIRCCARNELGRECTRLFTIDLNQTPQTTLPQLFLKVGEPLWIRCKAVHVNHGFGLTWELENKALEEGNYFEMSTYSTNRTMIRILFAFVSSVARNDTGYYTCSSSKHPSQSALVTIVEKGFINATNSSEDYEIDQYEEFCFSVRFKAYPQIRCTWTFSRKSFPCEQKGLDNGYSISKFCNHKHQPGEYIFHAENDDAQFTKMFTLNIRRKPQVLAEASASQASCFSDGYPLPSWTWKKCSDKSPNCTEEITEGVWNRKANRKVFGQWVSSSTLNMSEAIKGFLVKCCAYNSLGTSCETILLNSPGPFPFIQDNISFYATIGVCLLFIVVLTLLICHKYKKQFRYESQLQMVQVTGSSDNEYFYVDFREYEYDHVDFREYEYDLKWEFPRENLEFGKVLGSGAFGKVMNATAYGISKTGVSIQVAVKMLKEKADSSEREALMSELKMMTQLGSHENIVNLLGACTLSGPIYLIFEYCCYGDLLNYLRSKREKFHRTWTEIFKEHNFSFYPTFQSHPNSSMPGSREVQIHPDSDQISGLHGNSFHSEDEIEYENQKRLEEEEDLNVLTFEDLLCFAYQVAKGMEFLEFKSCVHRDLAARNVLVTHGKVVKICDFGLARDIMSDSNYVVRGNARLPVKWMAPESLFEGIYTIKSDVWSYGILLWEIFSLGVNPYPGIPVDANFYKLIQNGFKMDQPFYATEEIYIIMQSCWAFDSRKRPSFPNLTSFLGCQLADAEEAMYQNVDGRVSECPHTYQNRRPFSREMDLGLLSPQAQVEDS

One may read the Kd as a measure of binding affinity in units of concentration. A higher Kd goes with lower affinity. Broadly, the IC50 is the point on the concentration scale where inhibition reaches its midpoint. Turning to `COc1cc2cc(-c3ccc(CC(=O)Nc4cc(C(C)(C)C(F)(F)F)on4)c(F)c3)cnc2cc1OCCO` [Example 91, 2-(2-fluoro-4-(7-(2-hydroxyethoxy)-6-methoxyquinolin-3-yl)phenyl)-N-(5-(1,1,1-trifluoro-2-methylpropan-2-yl)isoxazol-3-yl)acetamide], the Kd at KIT kinase and at FLT3 kinase was under 5 nM throughout. Besides, the IC50 on FLT3-ITD is under 10 nM.
In the case of `CCN1CC(Oc2cc3ncc(-c4ccc(CC(=O)Nc5cc(C6(C(F)(F)F)CC6)on5)c(F)c4)nc3cc2OC)C1` [Example 142, 2-[4-[6-(1-ethylazetidin-3-yl)oxy-7-methoxy-quinoxalin-2-yl]-2-fluoro-phenyl]-N-[5-[1-(trifluoro-methyl)cyclopropyl]isoxazol-3-yl]acetamide], the Kd at KIT kinase and on FLT3 kinase was under 5 nM in each case. Besides, the IC50 on FLT3-ITD was under 10 nM.
As for `COc1cc2cc(-c3ccc(CC(=O)Nc4cc(C5(C(F)(F)F)CC5)on4)c(F)c3)cnc2cc1OCCO` [Example 88, 2-(2-fluoro-4-(7-(2-hydroxyethoxy)-6-methoxyquinolin-3-yl)phenyl)-N-(5-(1-(trifluoromethyl)cyclopropyl)isoxazol-3-yl)acetamide], the Kd at KIT kinase and at FLT3 kinase was under 5 nM in each case. For the same molecule, the IC50 at FLT3-ITD was under 10 nM.
Regarding `COc1cc2nc(-c3ccc(CC(=O)Nc4cc(C5(C(F)(F)F)CC5)on4)c(F)c3)cnc2cc1OCc1ccccc1` [Example 163, 2-[4-(6-benzyloxy-7-methoxy-quinoxalin-2-yl)-2-fluoro-phenyl]-N-[5-[1-(trifluoromethyl)cyclo-propyl]isoxazol-3-yl]acetamide], the Kd at KIT kinase and on FLT3 kinase was over 50 nM each time. Moreover, on FLT3-ITD, the IC50 is under 10 nM.
Take `COc1ccc2ncc(-c3ccc(CC(=O)Nc4cc(C5(C(F)(F)F)CC5)on4)c(F)c3)nc2n1` [Example 155, 2-[2-fluoro-4-(6-methoxypyrido[2,3-b]pyrazin-3-yl)phenyl]-N-[5-[1-(trifluoromethyl)cyclo-propyl]isoxazol-3-yl]acetamide OR 2-[2-fluoro-4-(6-methoxypyrido[2,3-b]pyrazin-2-yl)phenyl]-N-[5-[1-(trifluoromethyl)cyclo-propyl]isoxazol-3-yl]acetamide]: the results for the Kd at KIT kinase and on FLT3 kinase were 5 to 20 nM and under 5 nM, respectively. Further, on FLT3-ITD, the IC50 is under 10 nM.
For `COc1cc2ncc(-c3ccc(CC(=O)Nc4cc(C5(C(F)(F)F)CC5)on4)c(F)c3)nc2cc1OC` [Example 4, 2-(4-(6,7-dimethoxyquinoxalin-2-yl)-2-fluorophenyl)-N-(5-(1-(trifluoromethyl)cyclopropyl)isoxazol-3-yl)acetamide] the same measures were under 5 nM, under 5 nM and under 10 nM.
On to `COCCOc1cc2ncc(-c3ccc(CC(=O)Nc4cc(C(C)(C)C)on4)cc3)nc2cc1OCCOC` [Example 120, 2-[4-[6,7-bis(2-methoxyethoxy)quinoxalin-2-yl]phenyl]-N-(5-tert-butylisoxazol-3-yl)acetamide], for which the Kd at KIT kinase and at FLT3 kinase was under 5 nM each time. For the same molecule, the IC50 on FLT3-ITD is under 10 nM.
Consider `COc1cc2nc(CO)c(-c3ccc(CC(=O)Nc4cc(C5(C(F)(F)F)CC5)on4)c(F)c3)nc2cc1OC` [Example 137, 2-[2-fluoro-4-[3-(hydroxymethyl)-6,7-dimethoxy-quinoxalin-2-yl]phenyl]-N-[5-[1-(trifluoro-methyl)cyclopropyl]isoxazol-3-yl]acetamide], for which the Kd on KIT kinase and at FLT3 kinase was under 5 nM throughout. The IC50 on FLT3-ITD was under 10 nM.
Regarding `CNC(=O)c1cc2cc(-c3ccc(CC(=O)Nc4cc(C(C)(C)C)on4)cc3)cnc2[nH]1` [Example 65, 5-(4-(2-((5-(tert-butyl)isoxazol-3-yl)amino)-2-oxoethyl)phenyl)-N-methyl-1H-pyrrolo[2,3-b]pyridine-2-carboxamide], the Kd at KIT kinase and at FLT3 kinase was under 5 nM throughout. At FLT3-ITD, the IC50 was under 10 nM.
Consider `COc1cc2nc(Cl)c(-c3ccc(CC(=O)Nc4cc(C5(C(F)(F)F)CC5)on4)c(F)c3)nc2cc1OC` [Example 146, 2-[4-(3-chloro-6,7-dimethoxy-quinoxalin-2-yl)-2-fluoro-phenyl]-N-[5-[1-(trifluoromethyl)cyclo-propyl]isoxazol-3-yl]acetamide], for which the Kd on KIT kinase and on FLT3 kinase was under 5 nM each time. At FLT3-ITD, the IC50 was under 10 nM.
On to `COc1cc2ncc(-c3ccc(CC(=O)Nc4cc(C(C)(C)C)nn4-c4ccccc4)c(F)c3)nc2cc1OC` [Example 140, N-(5-tert-butyl-2-phenyl-pyrazol-3-yl)-2-[4-(6,7-dimethoxyquinoxalin-2-yl)-2-fluoro-phenyl]acetamide], for which the Kd on KIT kinase was 5 to 20 nM; on FLT3 kinase, under 5 nM. The IC50 on FLT3-ITD is under 10 nM.
For `CN(C)C1CCN(C(=O)c2cc3cc(-c4ccc(CC(=O)Nc5cc(C6(C(F)(F)F)CC6)on5)c(F)c4)cnc3[nH]2)C1` (stereo not drawn) [Example 110, 2-[4-[2-[3-(dimethylamino)pyrrolidine-1-carbonyl]-1H-pyrrolo[2,3-b]pyridin-5-yl]-2-fluoro-phenyl]-N-[5-[1-(trifluoro-methyl)cyclopropyl]isoxazol-3-yl]acetamide] the same measures were under 5 nM, under 5 nM and under 10 nM.
Consider `COc1ccc2cc(-c3ccc(CC(=O)Nc4cc(C5(C(F)(F)F)CC5)on4)cc3)cnc2c1` [Example 2, 2-(4-(7-methoxyquinolin-3-yl)phenyl)-N-(5-(1-(trifluoromethyl)cyclopropyl)isoxazol-3-yl)acetamide], for which the Kd on KIT kinase and on FLT3 kinase was under 5 nM in each case. Moreover, at FLT3-ITD, the IC50 is under 10 nM.
In the case of `COCCOc1cc2nc(-c3ccc(CC(=O)Nc4cc(C(C)(C)C)nn4C)c(F)c3)cnc2cc1OC` [Example 161, N-(5-tert-butyl-2-methyl-pyrazol-3-yl)-2-[2-fluoro-4-[6-methoxy-7-(2-methoxyethoxy)quinoxalin-2-yl]phenyl]acetamide], the Kd on KIT kinase and at FLT3 kinase was under 5 nM in each case. Further, the IC50 at FLT3-ITD was under 10 nM.
`COc1cc2ncc(-c3ccc(CC(=O)Nc4cc(C5(C(F)(F)F)CC5)on4)c(F)c3)nc2cc1O` [Example 157, 2-[2-fluoro-4-(7-hydroxy-6-methoxy-quinoxalin-2-yl)phenyl]-N-[5-[1-(trifluoro-methyl)cyclopropyl]isoxazol-3-yl]acetamide]: the Kd at KIT kinase and on FLT3 kinase was under 5 nM in each case. For the same molecule, on FLT3-ITD, the IC50 was under 10 nM.
In the case of `O=C(Cc1ccc(-c2cnc3cc4c(cc3n2)O[C@H](CO)CO4)cc1F)Nc1cc(C2(C(F)(F)F)CC2)on1` [Example 122, 2-[2-fluoro-4-[(3R)-3-(hydroxymethyl)-2,3-dihydro-[1,4]dioxino[2,3-g]quinoxalin-7-yl]phenyl]-N-[5-[1-(trifluoro-methyl)cyclopropyl]isoxazol-3-yl]acetamide], the Kd at KIT kinase and on FLT3 kinase was under 5 nM throughout. Besides, the IC50 at FLT3-ITD is under 10 nM.
Regarding `O=C(Cc1ccc(-c2cnc3cc(OCCO)c(OCCO)cc3n2)cc1F)Nc1cc(C2(C(F)(F)F)CC2)on1` [Example 75, 2-(4-(6,7-bis(2-hydroxyethoxy)quinoxalin-2-yl)-2-fluorophenyl)-N-(5-(1-(trifluoromethyl)cyclopropyl)isoxazol-3-yl)acetamide], the Kd at KIT kinase and on FLT3 kinase was under 5 nM throughout. Further, the IC50 on FLT3-ITD is under 10 nM.
Turning to `COc1cc2nc(-c3ccc(CC(=O)Nc4cc(C5(C(F)(F)F)CC5)on4)c(F)c3)cnc2cc1OCCN=[N+]=[N-]` [Example 166, 2-[4-[6-(2-azidoethoxy)-7-methoxy-quinoxalin-2-yl]-2-fluoro-phenyl]-N-[5-[1-(trifluoromethyl)cyclo-propyl]isoxazol-3-yl]acetamide], the Kd on KIT kinase and at FLT3 kinase was under 5 nM each time. For the same molecule, at FLT3-ITD, the IC50 is under 10 nM.
`COc1cc2nc(-c3ccc(CC(=O)Nc4cc(C5(C(F)(F)F)CC5)on4)c(F)c3)cnc2cc1O` [Example 78, 2-(2-fluoro-4-(6-hydroxy-7-methoxyquinoxalin-2-yl)phenyl)-N-(5-(1-(trifluoromethyl)cyclopropyl)isoxazol-3-yl)acetamide]: the Kd at KIT kinase and on FLT3 kinase was under 5 nM throughout. Moreover, at FLT3-ITD, the IC50 was under 10 nM.
With `O=C(Cc1ccc(-c2cnc3cc4c(cc3n2)OCCO4)cc1F)Nc1cc(C2(C(F)(F)F)CC2)on1` [Example 76, 2-(4-(2,3-dihydro-[1,4]dioxino[2,3-g]quinoxalin-7-yl)-2-fluorophenyl)-N-(5-(1-(trifluoromethyl)cyclopropyl)isoxazol-3-yl)acetamide], the dissociation constant Kd was 5 to 20 nM at KIT kinase and under 5 nM at FLT3 kinase. For the same molecule, on FLT3-ITD, the IC50 is under 10 nM.
With `CCOc1cc2ncc(-c3ccc(CC(=O)Nc4cc(C5(C(F)(F)F)CC5)on4)c(F)c3)cc2cc1OC` [Example 86, 2-(4-(7-ethoxy-6-methoxyquinolin-3-yl)-2-fluorophenyl)-N-(5-(1-(trifluoromethyl)cyclopropyl)isoxazol-3-yl)acetamide], the Kd at KIT kinase and at FLT3 kinase was under 5 nM each time. Moreover, the IC50 on FLT3-ITD was under 10 nM.
Turning to `CC(C)(C)c1cc(NC(=O)Cc2ccc(-c3cnc4[nH]cc(C5(O)COC5)c4c3)cc2)no1` [Example 97, N-(5-tert-butylisoxazol-3-yl)-2-[4-[3-(3-hydroxyoxetan-3-yl)-1H-pyrrolo[2,3-b]pyridin-5-yl]phenyl]acetamide], the Kd on KIT kinase and on FLT3 kinase was under 5 nM each time. Moreover, the IC50 on FLT3-ITD is under 10 nM.
`COc1cc2cc(-c3ccc(CC(=O)Nc4cc(C5(C(F)(F)F)CC5)on4)cc3)cnc2cc1OC` [Example 5, 2-(4-(6,7-dimethoxyquinolin-3-yl)phenyl)-N-(5-(1-(trifluoromethyl)cyclopropyl)isoxazol-3-yl)acetamide]: the Kd on KIT kinase and on FLT3 kinase was under 5 nM in each case. In addition, the IC50 at FLT3-ITD is under 10 nM.
